The experiment has as its system Heliothis virescens. The experiment can be described thus: Artificial diet feeding bioassay, mortality and growth inhibition in first-instar larvae. It counts as in vivo, Heliothis virescens (tobacco budworm). Particulars: for LC50: Heliothis virescens, po; for EC50 (concentration causing 50% growth inhibition): Table 1, first-instar Heliothis virescens larvae, parentheses = 95% confidence limits; for EC50 (concentration causing 50% growth inhibition) / EC50: artificial diet; for insecticidal activity (in words): Heliothis virescens feeding; for EC50: Table 5, larval growth reduced to 50% of control, first instar Heliothis virescens, 95% confidence limits. The source says:
The results of the growth inhibitory and lethal activities of azadirachtin and these 8 derivatives when fed in an artificial diet to Heliothis virescens larvae are shown in Table 1. Similar to the results of Morgan, E. D., in "Natural pesticides from the Neem tree (Azadirachta indica A. Juss), Schmutterer, H., et al., Eds., Proc. First International Neem Conference (Rottach-Egern, 1980), German Agency for Technical Corporation,Eschborn, Germany, 1982, pps. 43-52 (hereinafter "Morgan"), neither deacetylation nor hydrogenation of the carbon-carbon double bond of the dihydrofuran ring moiety of azadirachtin had any significant effect on activity of the compound against H. virescens.
Mortality and growth inhibition in first-instar Heliothis
virescens larvae fed azadirachtin and eight derivatives in an
artificial diet (I. Kubo and J. A. Klocke, In: Plant Resistance to
Insects (P. A. Helin, Ed.), ACS Symposium Series 208, American Chemical
Society, Washington, D.C. (1983), pp. 329-346.).^a
^b LC50 values are the concentrations (ppm) causing 50%
^c EC50 values are the concentrations (ppm) causing 50% growth
^d Numbers in parentheses are the 95% confidence limits determined
using the methods of Litchfield and Wilcoxon, J. Pharmacol. Exp. Ther.
An artificial diet feeding bioassay with neonate larvae of tobacco budworm (Heliothis virescens) and fall armyworm (Spodoptera frugiperda) was used as previously described (Kubo and Klocke, 1983) to detect insecticidal activities in the plant extracts to monitor fractionation, and to determine the potency of the isolated constituents and derivatives. Potency was determined either as the effective concentration (EC50) of added material that is necessary to reduce larval growth to 50% of the control values or as the lethal concentration (LC50) of added material that is necessary to kill 50% of the treated larvae. EC50 and LC50 values were determined from log probit paper and analyzed statistically by the method of Litchfield and Wilcoxon, supra.

Where [1] appears, read: read-out: LC50 (concentration causing 50% mortality).

Values after ≈ are worked out from the molar mass of the structure shown. Like-named read-outs stand apart in the source and are kept apart here.

As to `C/C=C(\C)C(=O)OC1CC(OC(C)=O)C2(C(=O)OC)COC3C2C12COC(OC(=O)OC)(C(=O)OC)C2C(C)(C12OC1(C)C1CC2OC2OCCC21OC(=O)OC)C3O` (centres unmarked) [11,20-O, O-dicarbomethoxy-22,23-dihydroazadirachtin], the “EC50 (concentration causing 50% growth inhibition)” value is listed as 29.0 (20.3-41.5) ppm. The LC50 under setting [1] is 90 µg/mL (≈ 107 µM).

For the molecule `CC(=O)C1C2(CO)C(O)CC(O)C3(C)COC(C32)C(O)C1(C)C12OC1(C)C1CC2OC2OC=CC21O` (centres unmarked) [Compound 14, decinnamoylmelianolone], the “insecticidal activity (in words)” value is reported as “did not show good activity”, the LC50 is 10 µg/mL (≈ 19.7 µM) and the EC50 is given as 3.20 ppm.

Consider `COC(=O)C1(O)OCC23C(O)CC(OC(C)=O)C4(C(=O)OC)COC(C42)C(O)C(C)(C24OC2(C)C2CC4OC4OCCC42O)C13` (centres unmarked) [1-detigloyl-22,23-dihydroazadirachtin], for which the “EC50 (concentration causing 50% growth inhibition)” value is 0.59 (0.30-1.14) ppm.

Consider `CC(=O)OC1CC(OC(=O)/C=C/c2ccccc2)C2(CO)C3C(OCC13C)C(O)C(C)(C13OC1(C)C1CC3OC3OC=CC31O)C2C(C)=O` (centres unmarked) [Compound 12, 1-cinnamoyl-3-0-acetylmelianolone], for which the “insecticidal activity (in words)” value is “approximately half that of azadirachtin”, the LC50 stood at 1.5 µg/mL (≈ 2.2 µM) and the EC50 is 0.15 ppm.

As to `C/C=C(\C)C(=O)OC1CC(OC(C)=O)C2(C(=O)OC)COC3C2C12COC(OC)(C(=O)OC)C2C(C)(C12OC1(C)C1CC2OC2OC=CC21O)C3O` (centres unmarked) [11-O-methylazadirachtin], the “EC50 (concentration causing 50% growth inhibition)” value is 5.00 (1.54-16.25) ppm. In addition, the LC50 under setting [1] worked out at 25 µg/mL (≈ 34 µM).

Turning to `C/C=C(\C)C(=O)OC1CC(OC(C)=O)C2(C(=O)OC)COC3C2C12COC(OC(C)=O)(C(=O)OC)C2C(C)(C12OC1(C)C1CC2OC2OC=CC21O)C3O` (centres unmarked) [11-O-acetylazadirachtin], the “EC50 (concentration causing 50% growth inhibition)” value is 0.18 (0.08-0.40) ppm. The LC50 under setting [1] worked out at 0.95 µg/mL (≈ 1.25 µM).

As for `CC(=O)C1C2(CO)C(OC(=O)/C=C/c3ccccc3)CC(O)C3(C)COC(C32)C(O)C1(C)C12OC1(C)C1CC2OC2OC=CC21O` (centres unmarked) [Compound 10, 1-cinnamoylmelianolone], the “insecticidal activity (in words)” value is listed as “approximately half that of azadirachtin”, the LC50 amounted to 1.5 µg/mL (≈ 2.35 µM) and the EC50 was 0.12 ppm.

Consider `COC(=O)C1(O)OCC23C(OC(=O)C(C)(O)C(C)O)CC(OC(C)=O)C4(C(=O)OC)COC(C42)C(O)C(C)(C24OC2(C)C2CC4OC4OCCC42O)C13` (centres unmarked) [2',3'-dihydroxy-2',3',22,23-tetrahydroazadirachtin], for which the “EC50 (concentration causing 50% growth inhibition)” value is 3.80 (1.95-7.41) ppm.

Regarding `CC(=O)OCC12C(OC(=O)/C=C/c3ccccc3)CC(OC(C)=O)C3(C)COC(C31)C(O)C(C)(C13OC1(C)C1CC3OC3OC=CC31O)C2C(C)=O` (centres unmarked) [Compound 13, 1-cinnamoyl-3,19-0,0-diacetylmelianolone], the “insecticidal activity (in words)” value is on record as “approximately half that of azadirachtin”, the LC50 was determined as 1.5 µg/mL (≈ 2.08 µM) and the EC50 was 0.12 ppm.

These data come from US5047242A, “Azadirachtin derivative insecticides” (Native Plant Institute ("NPI"), priority 1987, dated 1991).
